According to patent publication US11654135B2, “Methods for treating colon cancer with compositions comprising amlexanox and immune checkpoint inhibitors” (MOONSHOT PHARMA LLC, priority 2017, dated 2023):

Test system: MC38 tumor cells
Experiment: Example 2: MC38 subcutaneous tumor model with amlexanox and checkpoint inhibitors, tumor volume by caliper
Type: in vivo, C57BL/6 mice
Conditions: for Mean tumor volume: MC38 s.c., C57BL/6, i.p.: NMDI14 5, PTC124 20, amlexanox 20 (with antibodies) or 10 (alone) mg/kg QD, antibodies 10 mg/kg BIW, 3 weeks; for Mean % Inhibition, Tumor Volume MC38: (mean(C) − mean(T))/mean(C) * 100%, negative values indicate an increase in tumor volume
Description: Animals and cell cultures were maintained as described in Example 1. C57BL/6 mice were inoculated subcutaneously at the right lower flank region with MC38 tumor cells (1×10^6) in 0.1 mL of PBS for tumor development. The treatments were started when the mean tumor size reaches approximately 50 mm^3. The date of tumor cell inoculation was denoted as day 0. All the compounds were administered i.p.
After tumor cell inoculation, the animals were checked daily for morbidity and mortality as well as any effects of tumor growth and treatments on normal behavior such as mobility, visual estimation of food and water consumption, body weight gain/loss, eye/hair matting and any other abnormal effect. Tumor volumes were measured twice weekly at least in two dimensions using a caliper, and the volume expressed in mm3 using the formula: V=0.5 a×b2 where a and b are the long and short diameters of the tumor, respectively. Mean tumor volume for each treatment group over the course of the study is shown in Table 9, and the percent inhibition of tumor volume is shown in Table 10.

SMILES: CC(C)c1ccc2oc3nc(N)c(C(=O)O)cc3c(=O)c2c1 [amlexanox, 2-amino-7-isopropyl-5-oxo-5H-chromeno[2,3-b]pyridine-3-carboxylic acid]
- Mean tumor volume (Day 7): 17.22 mm3
- Mean tumor volume (Day 11): 145.47 mm3
- Mean tumor volume (Day 14): 286.64 mm3
- Mean tumor volume (Day 18): 982.03 mm3
- Mean tumor volume (Day 21): 1830.00 mm3
- Mean tumor volume (Day 25): 2816.94 mm3
- Mean tumor volume (Day 26 (so in the source)): 3301.20 mm3
- Mean % Inhibition, Tumor Volume MC38 (Study day 7 (Mar. 17, 2017)): −45.19%
- Mean % Inhibition, Tumor Volume MC38 (Study day 11 (Mar. 21, 2017)): −29.51%
- Mean % Inhibition, Tumor Volume MC38 (Study day 14 (Mar. 24, 2017)): −39.15%
- Mean % Inhibition, Tumor Volume MC38 (Study day 18 (Mar. 28, 2017)): −44.97%
- Mean % Inhibition, Tumor Volume MC38 (Study day 21 (Mar. 31, 2017)): −63.00%
- Mean % Inhibition, Tumor Volume MC38 (Study day 25 (Apr. 4, 2017)): −42.11%
- Mean % Inhibition, Tumor Volume MC38 (Study day 28 (Apr. 7, 2017)): −104.74%
